In this test the test system is STAT5 Y694 phosphorylation. As to the kind of experiment: Protein electrophoresis and blotting of STAT5 Y694 phosphorylation in Jurkat cells stimulated with human interferon beta. Format: cell-based. Conditions: for Inhibiting Ratio (0% for vehicle control): 1 hour pretreatment, 20 ng/ml human interferon beta 30 minutes, pSTAT5/GAPDH. In a few lines:
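Serum-free Jurkat cells pretreated with compound 1 h, then stimulated with 20 ng/ml human interferon beta for 30 min at 37° C. pSTAT5 measured by western blot with chemiluminescence, normalized to GAPDH and expressed as percent of DMSO control.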

Take `O=C(Cc1ccc(C(F)(F)F)cc1)N1CCC(n2c(=O)[nH]c3ccccc32)CC1` [Example X8, 1-(1-(2-(4-(trifluoromethyl)phenyl)acetyl)piperidin-4-yl)-1H-benzo[d]imidazole-2(3H)-one]: the “Inhibiting Ratio (0% for vehicle control)” value runs as follows: (1 μM) 6.9%; (10 μM) 31.4%; (100 μM) 95.6%. Also, the “Example of Effect 1: Inhibiting Ability (Protein Electrophoresis and Blotting)” value (observed pSTAT5 bands at 10 μM and 100 μM) is reported as “+”.

(Values after patent US20230099441A1, “HETEROCYCLIC COMPOUND, APPLICATION THEREOF, AND COMPOSITION CONTAINING SAME” (GenEros Biopharma Ltd., priority 2019, published 2023).)
